According to ChEMBL document CHEMBL1201862, “PubChem BioAssay data set” (2004):
Active and inactive are the calls of the source.

Legend:
[1] = target: T1, Rac GTPase-activating protein 1 (Homo sapiens, UniProt Q9H0H5); assay: MgcRacGAP GTPase-activating activity inhibitors, confirmation, biochemical, ADP Hunter fluorescence, primary and confirmatory (AID 624330); format: functional
T1 sequence (Q9H0H5 whole entry): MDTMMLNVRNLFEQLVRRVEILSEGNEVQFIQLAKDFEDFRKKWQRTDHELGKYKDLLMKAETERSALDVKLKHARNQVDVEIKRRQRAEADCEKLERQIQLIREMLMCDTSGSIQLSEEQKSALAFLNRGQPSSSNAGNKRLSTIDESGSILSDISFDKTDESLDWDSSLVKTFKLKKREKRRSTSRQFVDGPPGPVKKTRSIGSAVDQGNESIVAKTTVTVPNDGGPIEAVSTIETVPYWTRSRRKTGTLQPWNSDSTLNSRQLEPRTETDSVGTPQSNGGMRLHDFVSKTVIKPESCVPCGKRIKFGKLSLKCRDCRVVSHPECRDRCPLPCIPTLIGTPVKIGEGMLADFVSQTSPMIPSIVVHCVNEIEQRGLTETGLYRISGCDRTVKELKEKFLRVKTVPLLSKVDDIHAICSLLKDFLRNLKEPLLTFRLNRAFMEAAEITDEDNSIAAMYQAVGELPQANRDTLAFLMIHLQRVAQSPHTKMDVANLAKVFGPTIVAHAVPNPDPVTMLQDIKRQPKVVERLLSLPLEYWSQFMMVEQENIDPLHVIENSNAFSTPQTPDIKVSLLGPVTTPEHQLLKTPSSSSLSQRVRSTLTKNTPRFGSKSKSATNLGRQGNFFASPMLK

[2] = target: T2, Long-chain-fatty-acid--AMP ligase FadD28 (Mycobacterium tuberculosis, UniProt P9WQ59); assay: Fluorescence polarization aasay to screen for inhibitors that compete for the binding of FadD28 to a bisubstrate Measured in Biochemical System Using Plate Reader - 2147-01_Inhibitor_Dose_CherryPick_Activity.; format: functional, Mycobacterium tuberculosis H37Rv
T2 sequence (P9WQ59 whole entry): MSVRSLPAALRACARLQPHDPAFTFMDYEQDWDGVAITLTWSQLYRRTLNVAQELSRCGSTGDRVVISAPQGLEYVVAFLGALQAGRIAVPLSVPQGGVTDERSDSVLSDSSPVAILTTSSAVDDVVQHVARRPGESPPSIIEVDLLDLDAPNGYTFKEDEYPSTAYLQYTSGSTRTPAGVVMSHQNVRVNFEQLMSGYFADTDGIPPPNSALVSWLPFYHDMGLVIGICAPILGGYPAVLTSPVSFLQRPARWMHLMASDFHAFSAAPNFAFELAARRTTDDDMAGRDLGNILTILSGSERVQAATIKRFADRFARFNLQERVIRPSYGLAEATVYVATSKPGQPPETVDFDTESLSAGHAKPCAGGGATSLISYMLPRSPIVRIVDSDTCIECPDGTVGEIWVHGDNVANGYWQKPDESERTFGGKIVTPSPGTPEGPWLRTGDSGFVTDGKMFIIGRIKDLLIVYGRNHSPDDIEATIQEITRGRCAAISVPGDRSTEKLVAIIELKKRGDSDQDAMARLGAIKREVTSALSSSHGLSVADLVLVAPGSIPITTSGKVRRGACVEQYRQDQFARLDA

Troponin, cardiac muscle = Troponin, cardiac muscle (Homo sapiens, UniProt P19429+P45379+P63316); assay: inhibitors of cardiac thin filament calcium sensitivity, dose response, biochemical, fluorescence, cardiac regulated thin filaments, triplicate IC50 (AID 504742); format: protein-complex assay
[3] = target: T3, Small ubiquitin-related modifier 1 (Homo sapiens, UniProt P63165); assay: inhibitors of SUMO1 partner interactions, dose response, biochemical, FRET (AID 624383); format: functional; conditions: read-out: IC50_Mean
[4] = target: T3, Small ubiquitin-related modifier 1; assay: inhibitors of SUMO1 peptide binding, dose response, biochemical, fluorescence polarization, uHTS hits (AID 624382); format: functional; conditions: read-out: IC50_Mean
[5] = target: T4, 1-phosphatidylinositol 4,5-bisphosphate phosphodiesterase beta-3 (Homo sapiens, UniProt Q01970); assay: Fluorescence-based biochemical high throughput dose response assay to identify inhibitors of phospholipase C isozymes (PLC-B3).
T4 sequence (Q01970 whole entry): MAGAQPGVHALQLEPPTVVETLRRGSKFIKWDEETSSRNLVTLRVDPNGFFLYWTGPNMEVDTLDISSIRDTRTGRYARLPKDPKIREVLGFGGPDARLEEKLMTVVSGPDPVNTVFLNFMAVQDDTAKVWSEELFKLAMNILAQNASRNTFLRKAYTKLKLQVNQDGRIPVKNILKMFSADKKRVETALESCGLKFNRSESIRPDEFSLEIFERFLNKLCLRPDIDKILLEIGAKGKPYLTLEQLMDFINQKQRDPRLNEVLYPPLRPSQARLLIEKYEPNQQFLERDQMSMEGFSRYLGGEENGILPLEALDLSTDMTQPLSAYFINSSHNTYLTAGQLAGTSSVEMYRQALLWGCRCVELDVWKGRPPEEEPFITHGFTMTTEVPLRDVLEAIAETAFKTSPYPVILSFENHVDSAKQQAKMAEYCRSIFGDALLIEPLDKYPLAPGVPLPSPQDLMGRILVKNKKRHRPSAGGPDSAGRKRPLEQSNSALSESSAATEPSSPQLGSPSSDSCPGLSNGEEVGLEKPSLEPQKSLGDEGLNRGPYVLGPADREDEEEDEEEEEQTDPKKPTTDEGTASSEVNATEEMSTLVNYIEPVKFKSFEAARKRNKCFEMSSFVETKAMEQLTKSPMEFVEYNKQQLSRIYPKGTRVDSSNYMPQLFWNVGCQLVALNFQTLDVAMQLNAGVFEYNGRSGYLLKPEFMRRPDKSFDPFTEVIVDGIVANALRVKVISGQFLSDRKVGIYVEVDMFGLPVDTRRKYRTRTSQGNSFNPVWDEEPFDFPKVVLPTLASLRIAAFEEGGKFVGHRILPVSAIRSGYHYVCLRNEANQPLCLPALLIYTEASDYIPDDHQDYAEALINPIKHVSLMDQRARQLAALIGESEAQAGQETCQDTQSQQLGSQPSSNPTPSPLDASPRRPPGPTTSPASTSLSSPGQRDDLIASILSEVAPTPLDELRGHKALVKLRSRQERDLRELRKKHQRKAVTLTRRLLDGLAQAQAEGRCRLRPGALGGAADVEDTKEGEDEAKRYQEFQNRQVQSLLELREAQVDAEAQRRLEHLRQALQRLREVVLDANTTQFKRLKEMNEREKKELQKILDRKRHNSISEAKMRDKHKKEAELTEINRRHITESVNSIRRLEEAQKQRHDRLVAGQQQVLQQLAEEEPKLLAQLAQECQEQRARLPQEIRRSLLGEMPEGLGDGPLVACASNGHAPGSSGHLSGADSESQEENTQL

Cytochrome P450 2D6 = Cytochrome P450 2D6 (Homo sapiens, UniProt P10635);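 further: CYP2D6 member of a cytochrome P450 panel assay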
[6] = target: T5, 1-phosphatidylinositol 4,5-bisphosphate phosphodiesterase gamma-1 (Homo sapiens, UniProt P19174); assay: Counterscreen for inhibitors of phospholipase C isozymes (PLC-B3): Fluorescence-based biochemical high throughput dose response assay to identify inhibitors of phospholipase C isozymes (PLC-gamma1).
T5 sequence (P19174 whole entry): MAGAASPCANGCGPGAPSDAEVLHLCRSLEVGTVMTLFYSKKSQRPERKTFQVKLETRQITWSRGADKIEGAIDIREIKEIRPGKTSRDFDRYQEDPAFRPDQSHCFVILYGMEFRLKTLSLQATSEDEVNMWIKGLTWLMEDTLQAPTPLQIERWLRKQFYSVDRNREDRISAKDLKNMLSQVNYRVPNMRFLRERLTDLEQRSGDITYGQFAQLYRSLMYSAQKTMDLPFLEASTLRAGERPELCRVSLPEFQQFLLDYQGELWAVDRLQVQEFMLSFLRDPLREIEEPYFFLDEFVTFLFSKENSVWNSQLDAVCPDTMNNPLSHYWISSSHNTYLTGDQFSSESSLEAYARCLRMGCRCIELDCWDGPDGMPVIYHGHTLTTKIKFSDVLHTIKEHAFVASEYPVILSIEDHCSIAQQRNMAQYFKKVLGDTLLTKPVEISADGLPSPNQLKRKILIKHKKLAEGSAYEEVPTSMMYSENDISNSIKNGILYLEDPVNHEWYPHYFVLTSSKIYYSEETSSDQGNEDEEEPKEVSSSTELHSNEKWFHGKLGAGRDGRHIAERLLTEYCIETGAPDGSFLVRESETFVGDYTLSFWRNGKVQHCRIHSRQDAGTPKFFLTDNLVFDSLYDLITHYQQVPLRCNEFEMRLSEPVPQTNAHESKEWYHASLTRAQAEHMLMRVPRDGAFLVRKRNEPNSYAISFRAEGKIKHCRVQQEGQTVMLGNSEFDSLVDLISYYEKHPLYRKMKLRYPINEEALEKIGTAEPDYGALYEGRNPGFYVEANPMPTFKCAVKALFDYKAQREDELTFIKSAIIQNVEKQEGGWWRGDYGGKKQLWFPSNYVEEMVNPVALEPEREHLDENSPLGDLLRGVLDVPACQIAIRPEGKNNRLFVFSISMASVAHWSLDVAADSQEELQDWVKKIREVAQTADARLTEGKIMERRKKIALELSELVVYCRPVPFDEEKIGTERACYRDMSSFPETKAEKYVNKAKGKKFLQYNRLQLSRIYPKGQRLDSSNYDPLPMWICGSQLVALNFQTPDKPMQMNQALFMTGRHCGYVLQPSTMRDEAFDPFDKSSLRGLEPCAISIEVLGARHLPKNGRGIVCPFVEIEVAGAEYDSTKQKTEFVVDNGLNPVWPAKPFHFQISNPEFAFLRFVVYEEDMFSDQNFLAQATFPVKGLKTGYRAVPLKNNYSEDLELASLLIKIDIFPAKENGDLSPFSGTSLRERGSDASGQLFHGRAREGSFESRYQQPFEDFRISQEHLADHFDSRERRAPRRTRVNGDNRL

[7] = A549 cell cytotoxicity, dose response, cytotoxicity control, plate reader, cherry-pick, antagonist series (AID 743412); format: functional, cell-based
[8] = LGR2 antagonists, dose response, cell-based, HEK293, CRE-luciferase reporter, cherry pick, set 2 (AID 743343); format: functional;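 further: transfected cells were stimulated with diluted bursicon conditioned medium after compound addition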
[9] = HepG2 cell cytotoxicity, dose response, cytotoxicity control, plate reader, cherry-pick, antagonist series (AID 743416); format: functional, cell-based
[10] = MC4R antagonists, dose response, counter-screen for LGR2 antagonist project, cell-based, plate reader, cherry pick (AID 743444); format: functional;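 further: transfected HEK 293 cells stimulated with alpha-MSH peptide; potency of inhibitors of the alpha-MSH evoked signal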
[11] = target: T6, Mannose-6-phosphate isomerase (Homo sapiens, UniProt P34949); assay: human PMI inhibitors, high substrate, primary screen, biochemical, fluorescence intensity, high mannose 6-phosphate (AID 1220)
T6 sequence (P34949 whole entry): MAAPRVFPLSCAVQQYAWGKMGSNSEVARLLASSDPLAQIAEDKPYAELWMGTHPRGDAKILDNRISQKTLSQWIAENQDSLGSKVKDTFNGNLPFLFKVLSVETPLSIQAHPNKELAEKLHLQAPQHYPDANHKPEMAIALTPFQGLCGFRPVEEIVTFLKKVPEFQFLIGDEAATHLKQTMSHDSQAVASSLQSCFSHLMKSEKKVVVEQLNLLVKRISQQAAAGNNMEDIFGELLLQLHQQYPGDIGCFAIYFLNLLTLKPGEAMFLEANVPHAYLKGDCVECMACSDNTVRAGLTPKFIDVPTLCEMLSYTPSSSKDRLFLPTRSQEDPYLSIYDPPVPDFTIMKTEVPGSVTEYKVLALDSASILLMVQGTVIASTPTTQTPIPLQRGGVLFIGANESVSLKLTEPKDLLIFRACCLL

[12] = target: Induced myeloid leukemia cell differentiation protein Mcl-1 (Homo sapiens, UniProt Q07820); format: functional
Caspase-6 = target: T7, Caspase-6 (Homo sapiens, UniProt P55212); assay: human caspase-6 inhibitors, dose response, biochemical, VEID-R110 fluorescence, cherry-pick (AID 720632)
T7 sequence (P55212 whole entry): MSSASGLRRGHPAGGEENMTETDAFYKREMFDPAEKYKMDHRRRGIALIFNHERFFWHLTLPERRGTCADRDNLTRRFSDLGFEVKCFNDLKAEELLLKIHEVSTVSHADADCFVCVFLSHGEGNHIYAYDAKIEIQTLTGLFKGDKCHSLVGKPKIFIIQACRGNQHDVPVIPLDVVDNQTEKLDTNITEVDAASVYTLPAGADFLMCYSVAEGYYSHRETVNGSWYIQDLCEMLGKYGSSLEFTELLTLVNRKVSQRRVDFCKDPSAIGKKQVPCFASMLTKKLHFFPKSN

cells = format: functional
[13] = HEK293T cytotoxicity, dose response, cytotoxicity control for miR-122 modulator project, cell-based, inhibitor set, cherry-pick, set 2 (AID 720697); format: functional

T3 sequence (P63165 whole entry): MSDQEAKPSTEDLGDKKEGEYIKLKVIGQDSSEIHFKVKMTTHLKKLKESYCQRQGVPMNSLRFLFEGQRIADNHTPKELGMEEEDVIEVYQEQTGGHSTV
Sequence of Cytochrome P450 2D6 (P10635 whole entry): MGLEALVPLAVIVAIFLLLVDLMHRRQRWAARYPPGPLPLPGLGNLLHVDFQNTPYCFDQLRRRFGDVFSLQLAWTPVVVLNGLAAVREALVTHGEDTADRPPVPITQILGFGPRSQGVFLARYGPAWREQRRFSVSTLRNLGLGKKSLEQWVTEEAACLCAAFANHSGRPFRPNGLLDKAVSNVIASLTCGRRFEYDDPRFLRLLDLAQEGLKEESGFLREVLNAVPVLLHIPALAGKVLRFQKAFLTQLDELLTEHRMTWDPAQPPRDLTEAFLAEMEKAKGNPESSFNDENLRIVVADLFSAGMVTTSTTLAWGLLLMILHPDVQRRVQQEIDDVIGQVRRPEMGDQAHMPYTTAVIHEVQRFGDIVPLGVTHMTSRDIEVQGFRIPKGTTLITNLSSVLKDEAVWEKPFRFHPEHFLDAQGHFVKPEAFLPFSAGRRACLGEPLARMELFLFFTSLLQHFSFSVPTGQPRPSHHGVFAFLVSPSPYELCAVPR
Sequence of Induced myeloid leukemia cell differentiation protein Mcl-1 (Q07820 whole entry): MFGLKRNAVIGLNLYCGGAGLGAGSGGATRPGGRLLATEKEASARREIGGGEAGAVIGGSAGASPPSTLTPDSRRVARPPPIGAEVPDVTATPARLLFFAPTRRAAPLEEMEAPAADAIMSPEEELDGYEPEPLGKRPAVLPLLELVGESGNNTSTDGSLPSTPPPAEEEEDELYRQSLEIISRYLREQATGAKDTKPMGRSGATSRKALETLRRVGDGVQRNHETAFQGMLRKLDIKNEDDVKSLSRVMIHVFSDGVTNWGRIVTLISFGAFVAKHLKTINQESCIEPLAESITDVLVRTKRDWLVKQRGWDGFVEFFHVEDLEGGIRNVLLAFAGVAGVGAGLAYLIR

O=C(O)c1cc(O)c2c(c1)[C@@H]([C@H]1c3cc(C(=O)O)cc(O)c3C(=O)c3c(O[C@@H]4O[C@H](CO)[C@@H](O)[C@H](O)[C@H]4O)cccc31)c1cccc(OC3O[C@H](CO)[C@@H](O)[C@H](O)[C@H]3O)c1C2=O (some centres undefined)
IC50 [1]: 12 µM (active)
AC50 [2]: > 100 µM (inactive)
IC50 (Troponin, cardiac muscle): 1.82 µM (active)
IC50 [3]: 1.06 µM (active)
IC50 [4]: 30.6 µM (inactive)

O=C(Cc1cccs1)N1CCC(c2nc3c(nnn3Cc3ccccc3Cl)c(=O)[nH]2)CC1
IC50 [5]: > 122 µM (inactive)
AC50 (Cytochrome P450 2D6): 14.1 µM (inconclusive)
IC50 [6]: > 122 µM (inactive)

COc1ccc(C(=O)Nc2ccc3ncccc3c2)cc1
AC50 [7]: 37.8 µM (active)
AC50 [8]: 5.45 µM (active)
AC50 [9]: 47 µM (active)
AC50 [10]: 7.29 µM (active)

COc1ccc(N2CCC(CNS(=O)(=O)c3cccc(C(F)(F)F)c3)C2)cc1 (centres undefined)
IC50 [11]: > 50 µM (not active)
IC50 [12]: > 54 µM (active)

COC(=O)COc1nc(C)c2c(c1C#N)CC(C)(C)OC2
IC50 [5]: > 123 µM (inactive)
IC50 [6]: > 123 µM (inactive)

O=[N+]([O-])c1cccc(NS(=O)(=O)c2ccc(-c3ccc(O)nn3)s2)c1
AC50 (Caspase-6): 40.3 µM (active)

O=C(COc1cccc2ccccc12)Nc1nc2ccccc2[nH]1
IC50 (cells): 6.2 µM (active)
AC50 [13]: 8.06 µM (active)
